Some test systems named below: ACHN; HOP-92; KM-20L2; KM12; M14; MOLT-4; NCI-H460; OVCAR-4; OVCAR-8; SF-295; SF-539; SNB-19; U-251; K562; NCI-H522; RPMI-8226; BT-549; MDA-MB-231; MDA-MB-435; PC-3.
Assay in all cases: inhibition of tumour cell growth, NCI panel, 48 h

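Test compounds were applied to cells in 96-well plates for 48 hours at 5 doses. Abbreviation: GI50, concentration required for 50% inhibition of growth.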 The source made the active and inactive calls. No stated cut-off is given here; in the data, active = GI50 up to about 1.1 µM and inactive = higher.

On to `Cc1ccc(C)c(N2C(=O)C(=O)C(c3nc4ccccc4o3)C(=O)C2=O)c1`, for which the GI50 with ACHN is > 100 µM (inactive); in the test with HOP-92, 92 µM (inactive); in the test on KM-20L2, > 100 µM (inactive); in the test with KM12 it was > 100 µM (inactive); in the test on M14, 36.1 µM (inactive); in the test on MOLT-4 it was 27.2 µM (inactive). Besides, the GI50 in the test with NCI-H460 is > 100 µM (inactive); with OVCAR-4 it was 37.6 µM (inactive); with OVCAR-8, > 100 µM (inactive); with SF-295 it was > 100 µM (inactive); in the test with SF-539, > 100 µM (inactive); in the test with SNB-19 it was > 100 µM (inactive). The GI50 in the test with U-251 is 96.6 µM (inactive).

Consider `O=Cc1cc(O)c(O)c(O)c1-c1c(C=O)cc(O)c(O)c1O`, for which the GI50 is > 100 µM (inactive) in the test with ACHN; 67.6 µM (inactive) in the test on K562; > 100 µM (inactive) in the test on KM-20L2; > 100 µM (inactive) in the test with KM12; > 100 µM (inactive) in the test with M14; > 100 µM (inactive) in the test with MOLT-4. The GI50 was > 100 µM (inactive) in the test with NCI-H460; > 100 µM (inactive) in the test with NCI-H522; > 100 µM (inactive) in the test with OVCAR-4; > 100 µM (inactive) in the test on OVCAR-8; 64.3 µM (inactive) in the test on RPMI-8226; > 100 µM (inactive) with SF-295. Also, the GI50 with SF-539, in the test on SNB-19 and in the test with U-251 was > 100 µM (inactive) each time.

In the case of `CCC1(Cl)C(=O)NC(=O)N(C2CC(O)C(CO)O2)C1N=[N+]=[N-]` (stereo unspecified), the GI50 in the test on ACHN, with HOP-92, in the test on K562, with KM-20L2, in the test on M14 and with MOLT-4 was > 100 µM (inactive) each time. Moreover, the GI50 with NCI-H460, with NCI-H522, with OVCAR-4, in the test on OVCAR-8, in the test with RPMI-8226 and in the test with SF-295 was > 100 µM (inactive) throughout. The GI50 in the test on SF-539, in the test on SNB-19 and in the test on U-251 was > 100 µM (inactive) throughout.

Regarding `CC1=CCC2(C#N)CCC1C2=O` (stereo unspecified), the GI50 with ACHN, with K562, in the test on KM-20L2, in the test with KM12, with M14 and in the test with MOLT-4 was > 100 µM (inactive) throughout. In addition, the GI50 in the test with NCI-H460, in the test with NCI-H522, with OVCAR-4, in the test with OVCAR-8, in the test with RPMI-8226 and with SF-295 was > 100 µM (inactive) in each case. Also, the GI50 in the test with SF-539, in the test with SNB-19 and with U-251 was > 100 µM (inactive) each time.

Regarding `CC/C(CC(=O)CCC(=O)Nc1c(C)cccc1C)=N\NC(=O)NN`, the GI50 in the test with ACHN, in the test on HOP-92, in the test with K562, in the test on KM-20L2, with KM12 and with M14 was > 100 µM (inactive) in each case. In addition, the GI50 in the test on MOLT-4, with NCI-H460, in the test with OVCAR-4, with OVCAR-8, in the test with SF-295 and in the test on SF-539 was > 100 µM (inactive) in each case. Also, the GI50 in the test on SNB-19 and with U-251 was > 100 µM (inactive) in each case.

As for `O=NN(CCCl)C(=O)NCc1ccc[n+]([O-])c1`, the GI50 was > 100 µM (inactive) with ACHN; 15.8 µM (inactive) with HOP-92; > 100 µM (inactive) in the test on K562; > 100 µM (inactive) in the test with KM-20L2; > 100 µM (inactive) with KM12; > 100 µM (inactive) with M14. The GI50 with MOLT-4 is 60.8 µM (inactive); in the test with NCI-H460, 45.7 µM (inactive); with OVCAR-4, > 100 µM (inactive); in the test with OVCAR-8, > 100 µM (inactive); with RPMI-8226, > 100 µM (inactive); with SF-295, 64.1 µM (inactive). In addition, the GI50 is 43.9 µM (inactive) in the test with SF-539 and 43.2 µM (inactive) in the test with U-251.

`N#Cc1cc2c(cc1Cl)Sc1nccn1S2(=O)=O`: the GI50 in the test on ACHN is 2.08 µM (inactive); in the test on BT-549 it was 3.32 µM (inactive); with HOP-92, 4.93 µM (inactive); with K562 it was 2.69 µM (inactive); with KM12, 5.79 µM (inactive); with M14, 0.619 µM (active). Also, the GI50 is 3.59 µM (inactive) in the test with MDA-MB-231; 4.91 µM (inactive) with MDA-MB-435; 0.667 µM (active) in the test with MOLT-4; 9.53 µM (inactive) in the test on NCI-H460; 1.15 µM (inactive) in the test on NCI-H522; 6.05 µM (inactive) in the test on OVCAR-4. In addition, the GI50 with OVCAR-8 was 2.82 µM (inactive); in the test with PC-3 it was 4 µM (inactive); in the test with RPMI-8226, 2.92 µM (inactive); in the test with SF-295, 4.31 µM (inactive); in the test on SF-539 it was 3.7 µM (inactive); in the test on SNB-19, 8.2 µM (inactive). Also, the GI50 with U-251 was 1.6 µM (inactive).

In the case of `Cc1ccc(S(=O)(=O)N2CCCCN(S(=O)(=O)c3ccc(C)cc3)Cc3ccccc3OCCOCCOc3c4cccc3Cc3cccc5c3OCCOCCOc3ccccc3CN(S(=O)(=O)c3ccc(C)cc3)CCCN(S(=O)(=O)c3ccc(C)cc3)Cc3ccccc3OCCOCCOc3c(cccc3C4)Cc3cccc(c3OCCOCCOc3ccccc3C2)C5)cc1`, the GI50 with ACHN, in the test with BT-549, in the test with HOP-92, with K562, with KM12 and with M14 was > 100 µM (inactive) each time. Moreover, the GI50 in the test with MDA-MB-231 is > 100 µM (inactive); in the test with MDA-MB-435 it was > 100 µM (inactive); in the test on MOLT-4 it was > 100 µM (inactive); with NCI-H460, > 100 µM (inactive); in the test on NCI-H522, 78.9 µM (inactive); in the test on OVCAR-4, > 100 µM (inactive). Further, the GI50 in the test on OVCAR-8, in the test on PC-3, in the test with RPMI-8226, in the test on SF-295, in the test with SF-539 and in the test on SNB-19 was > 100 µM (inactive) each time. For the same compound, the GI50 in the test with U-251 is > 100 µM (inactive).

In the case of `C=C(C)C12OC3(c4ccccc4)OC1C1C4OC4(CO)C(O)C4(O)C(=O)C(C)=CC4C1(O3)C(C)C2OC(=O)/C=C/C=C/c1ccccc1` (stereo unspecified), the GI50 in the test with ACHN is < 0.0005 µM (active); in the test with BT-549, 0.203 µM (active); in the test on HOP-92 it was < 0.0005 µM (active); in the test with K562, < 0.0005 µM (active); in the test with KM12, 0.156 µM (active); in the test on M14, 0.0853 µM (active). The GI50 in the test with MDA-MB-231 was < 0.0005 µM (active); with MDA-MB-435 it was < 0.0005 µM (active); in the test on MOLT-4, 0.113 µM (active); with NCI-H460 it was < 0.0005 µM (active); with NCI-H522, 0.267 µM (active); in the test with OVCAR-4 it was 0.173 µM (active). In addition, the GI50 in the test on OVCAR-8 was 0.357 µM (active); in the test on PC-3, 0.111 µM (active); in the test with RPMI-8226, 0.107 µM (active); in the test with SF-295, < 0.0005 µM (active); with SF-539 it was 0.372 µM (active); in the test on SNB-19 it was 0.713 µM (active). The GI50 with U-251 was 0.197 µM (active).

Take `NCCSCCC(=O)O`: the GI50 is > 25.6 µM (inactive) with ACHN; > 100 µM (inactive) with BT-549; > 100 µM (inactive) in the test with HOP-92; 31.8 µM (inactive) with K562; > 82.8 µM (inactive) with KM12; > 74.8 µM (inactive) in the test with M14. In addition, the GI50 is > 100 µM (inactive) in the test with MDA-MB-231; > 100 µM (inactive) in the test on MDA-MB-435; 29.7 µM (inactive) in the test on MOLT-4; > 12.4 µM (inactive) with NCI-H460; > 66.1 µM (inactive) in the test on NCI-H522; > 100 µM (inactive) in the test on OVCAR-4. For the same compound, the GI50 in the test on OVCAR-8 is > 84.3 µM (inactive); in the test with PC-3, > 82 µM (inactive); in the test on RPMI-8226, 25.8 µM (inactive); in the test on SF-295, > 48.4 µM (inactive); in the test with SF-539, 21.9 µM (inactive); in the test with SNB-19, > 94.8 µM (inactive). Besides, the GI50 in the test with U-251 was > 44 µM (inactive).

For `CC1OC(OC2C(OC(=O)[C@]34CCC(C)(C)CC3C3=CCC5[C@@]6(C)C[C@H](O)[C@H](OC7OC(CO)C(O)C(O)C7N)[C@@](C)(C(=O)O)C6CC[C@@]5(C)C3(C)CC4)OCC(O)C2O)C(O)C(O)C1OC1OCC(O)C(O)C1O` (stereo partly specified), the GI50 with ACHN, in the test with HOP-92, with K562, in the test on KM-20L2, in the test with KM12 and with MOLT-4 was > 100 µM (inactive) in each case. In addition, the GI50 in the test with NCI-H460, with NCI-H522, with OVCAR-8, with RPMI-8226, in the test with SF-295 and with SF-539 was > 100 µM (inactive) throughout. Moreover, the GI50 in the test with SNB-19 and with U-251 was > 100 µM (inactive) each time.

On to `COc1cc2c(cc1OC)[C@@H](Nc1ccc(F)cc1)C1COC(=O)[C@@H]1C2c1cc(OC)c(O)c(OC)c1` (stereo partly specified), for which the GI50 is 0.12 µM (active) in the test on ACHN; 1.19 µM (inactive) in the test on K562; 3.04 µM (inactive) in the test on KM-20L2; 2.77 µM (inactive) in the test on KM12; 1.24 µM (inactive) with M14; 0.0147 µM (active) in the test with MOLT-4. The GI50 in the test on NCI-H460 is < 0.0204 µM (active); in the test on NCI-H522 it was 2.2 µM (inactive); in the test with OVCAR-4 it was 16.7 µM (inactive); in the test on OVCAR-8 it was 1.99 µM (inactive); in the test with RPMI-8226, 0.16 µM (active); in the test with SF-295 it was 0.267 µM (active). Further, the GI50 with SF-539 is 0.594 µM (active); in the test on SNB-19, 1 µM (active); in the test on U-251, 0.493 µM (active).

Values taken from ChEMBL document CHEMBL1201862, “PubChem BioAssay data set” (2004).
